Measurements as given in US20030236218A1, “Aryl phosphate derivatives of d4T with selective activity against adenovirus and HIV” (priority 2002, published 2003).
≈ marks a conversion by molar mass, not a printed value. Like-named read-outs stand apart in the source and are kept apart here.

Key:
[1] = test system: adenovirus strain Type 5, strain adenoid 75; experiment: Adenovirus plaque formation assay in skin fibroblast cell line SF; assay type: cell-based, human adenovirus
[2] = test system: respiratory syncytial virus (RSV), strain Long; experiment: RSV plaque formation assay in HEP-2 cells; assay type: cell-based; conditions: human respiratory syncytial virus, HEp-2
Text: (§1) Virus stocks. The HIV-1 strain used in this study was HTLV-IIIB (Uckun et al., 1998 Antimicro. Agents and Chemother., 42:383-388). The non-HIV viruses included in the present study were the gancyclovir-sensitive cytomegalovirus (CMV) strain AD169 (ATCC VR-538); acyclovir-sensitive herpes simplex virus (HSV) Type I strain HF (ATCC VR-260); acyclovir-sensitive HSV Type II strain G (ATCC VR-734); adenovirus strain Type 5, strain adenoid 75 (ATCC VR-5); enterovirus strain, ECHO 30, strain Bastianni (ATCC VR-322); and respiratory syncytial virus (RSV), strain Long (ATCC VR-26).
(§2) Plaque formation assays. Plaque assays were used to examine the activity of the compounds against non-HIV viruses. The skin fibroblast cell line SF (ATCC CRL-2097) was used as a target for AD169, Adenovirus Type 5. […] cell line (ATCC CCL-81) was used as a target for HSV HF and G. The HEP-2 cell line (ATCC CCL-23) was used as a target for the RSV strain Long. These cell lines were cultured at 1×10^5 cells/well in 24-well (all but ECHO 30-infected SF) or 6-well (ECHO 30-infected SF) tissue culture plates with 0.9% methylcellulose or 0.4% SeaPlaque agarose semisolid support. […] Percent inhibition of plaque formation was calculated by comparing the plaque numbers from the test substance-treated infected cells with the plaque numbers from untreated infected cells (i.e., virus controls). The IC50 values were determined using the Statview statistics program (SAS Institute, Inc., Cary, N.C.).
(§3) Statistical analysis. […] An IC50 value was calculated from each set of triplicate wells using nonlinear regression modeling of the exponential form of the linearized equation (Statview, SAS Institute, Inc., Cary, N.C.). […]
(§4) The skin fibroblast cell line SF (ATCC CRL-2097) was used as a target for AD169, Adenovirus Type 5, and ECHO 30; the VERO cell line (ATCC CCL-81) was used as a target for HF and G; and the HEP-2 cell line (ATCC CCL-23) was used as target for the RSV strain Long. Results are expressed as the average IC50 values in μM. […]

Solubility = assay type: physicochemical; conditions: read-out: Solubility
[3] = Stability in murine liver homogenates; assay type: in vitro ADME, Balb/c mice; conditions: 100 μM; Balb/c mouse liver homogenate
Protocol: At a predetermined time, an aliquot (100 μl) of spiked liver homogenate was extracted by adding 400 μl of acetone to induce precipitation of proteins, as described above.

[4] = Pharmacokinetic studies in mice, intravenous administration; assay type: in vivo, Balb/c mice; conditions: for AUC: read-out: AUC (converted); for Vd: read-out: Vss
[5] = mice, cited from earlier work
HSV Type II strain G = experiment: HSV-2 plaque formation assay in VERO cells; assay type: cell-based, herpes simplex virus Type II; conditions: Human alphaherpesvirus 2, HSV-2, Strain G
Text: as §1, §2, §3, §4

Stability in whole blood = assay type: in vitro ADME
Protocol: (§5) The whole blood samples were placed in a 37° C. water bath, while plasma samples were stored at −20° C. At a predetermined time, an aliquot (100 μl) of spiked whole blood or plasma was extracted by adding 400 μl of acetone to induce precipitation of proteins, as described above.

Stability in plasma = assay type: in vitro ADME
Protocol: Plasma samples (200 μL) were mixed 1:4 with acetone (800 μL) and vortexed for at least 30 seconds. Following centrifugation, the supernatant was transferred into a clean tube and was dried under nitrogen. A 50 μL solution of 50% methanol in 200 mM HCl was used to reconstitute the extraction residue, and 40 μL was injected into the HPLC.
as §5

[6] = cats; twice daily hard gelatin capsules 25 mg/kg -100 mg/kg; cumulative dose levels as high as 8.4 g/kg; cited from earlier work
[7] = Stability in simulated gastric fluid; assay type: in vitro ADME; conditions: 100 μM, 37° C., 8 hours, listed as d4T-5′-[p-bromophenyl methoxyalaninyl phosphate]
Protocol: The spiked fluids were then placed in a 37° C. water bath. At a predetermined time, 100 μI aliquots of the spiked gastric or intestinal fluid were extracted by adding 400 μl of acetone as discussed above.

[8] = after i.v. compound 113, model fit, C.V. of modeling in parentheses
[9] = female, Balb/c, mouse, in vivo, iv, 100 mg/kg, plasma analyte = label, after i.v. 100 mg/kg compound 113, estimate from composite curve of pooled data
[10] = female, Balb/c, mouse, in vivo, iv, 100 mg/kg, plasma analyte = label, after i.v. 100 mg/kg compound 113, mean ± S.E.M

Structure (SMILES): COC(=O)C(C)NP(=O)(OC[C@@H]1C=C[C@H](n2cc(C)c(=O)[nH]c2=O)O1)Oc1ccc(Br)cc1 (stereo partly drawn) [Compound 113, 5′-[4-Bromophenyl methoxylaninylphosphate]-2′, 3′-didehydro-3′-deoxy thymidine]
- IC50 ([1]; Adenovirus Type 5, 7 days, ± s.e., read-out: IC50, ADV-induced plaque formation): 22.3 ± 9 nM
- IC50 ([1]; Skin fibroblast, […], read-out: IC50, ADV-induced plaque formation, Adenovirus Type 5, 7 days, ± s.e.): 22 ± 9 nM
- IC50 [2]: > 100000 nM
- Solubility (Solubility): 3000 µg/mL (≈ 5.51 mM)
- time to decomposition in liver homogenate [3]: ≤ 30 min
- CLm1 (metabolic clearance of compound 113 / formation clearance of Ala-d4T-MP) [4, 8]: 83.9 mL/min/kg
- CLm2 (metabolic clearance of compound 113 / formation clearance of d4T) [4, 8]: 87.4 mL/min/kg
- AUC [4, 9]: 19 µM·h
- Vd [4, 9]: 0.82 L/kg
- Cmax [4, 10]: 212 µM
- clearance [4, 10]: 174 mL/min/kg
- half-life [4, 10]: 3.6 min
- AUC [4, 10]: 17.9 µM·h
- Vd [4, 10]: 0.92 L/kg
- toxicity on daily administration ([5]; intraperitoneally or orally for up to 8 consecutive weeks, cumulative dose levels as high as 6.4 g/kg): not associated with any detectable toxicity
- acute or subacute toxicity ([5]; single intraperitoneal or oral bolus dose levels as high as 500 mg/kg): very well tolerated without any detectable acute or subacute toxicity
- IC50 (HSV Type II strain G): > 100000 nM
- time to complete decomposition in whole blood (Stability in whole blood; 250 μM, 37° C.): ≤ 30 min
- decomposed in whole blood (Stability in whole blood; 250 μM, 37° C., 5 minutes): 68%
- decomposed in whole blood (Stability in whole blood; 250 μM, 37° C., 10 minutes): 87%
- decomposed in whole blood (Stability in whole blood; 250 μM, 37° C., 15 minutes): 92%
- stability in whole blood (in words) (Stability in whole blood; spiked whole blood 37° C., 250 μM compound 113, 100 μM Ala-d4T-MP (followed for 1 day)): very unstable
- time to complete decomposition in plasma (Stability in plasma; 250 μM): ≤ 30 min
- decomposed following incubation with plasma (Stability in plasma; 250 μM, after 5 minutes): over 95%
- stability in plasma (in words) (Stability in plasma; spiked plasma, 250 μM compound 113, 100 μM Ala-d4T-MP (followed for 1 day)): very unstable
- tolerability of four-week treatment course [6]: very well tolerated
- stability in gastric fluid (in words) [7]: relatively stable
